Where two headings read alike, the source gives them in different places.
What was measured:
human JAK2 kinase domain = human JAK2 kinase domain (Homo sapiens (Human), UniProt O60674); test: JAK2 Inhibition Assay Protocol (Caliper LabChip peptide phosphorylation); type: biochemical; settings: enzymatic activity, 25 uM ATP; read-out: JAK2i Ki
Description: Saltzman et al., Biochem. Biophys. Res. Commun. 246:627-633 (2004). The catalytically active kinase domain of human JAK2 was purified from extracts of SF9 insect cells infected with a recombinant baculovirus expression vector encoding the human JAK2 kinase domain (amino acid residues D812-G1132 according to the numbering of GenBank sequence accession number NP_004963.1). The activity of the JAK2 kinase domain can be measured by a number of direct and indirect methods, including quantification of phosphorylation of peptide substrates derived from the human JAK3 protein Saltzman et al., Biochem. Biophys. Res. Commun. 246:627-633 (2004). The activity of the JAK2 kinase domain was measured in vitro by monitoring phosphorylation of JAK3 derived peptides using the Caliper LabChip technology (see Examples).
The activity of the isolated kinase domain of JAK2 can be measured by monitoring phosphorylation of peptide substrates derived from the human JAK3 kinase in vitro Saltzman et al., Biochem. Biophys. Res. Commun. 246:627-633 (2004). The human JAK2 kinase domain was expressed with an N-terminal His6 tag followed by a thrombin cleavage site using the baculovirus expression vector system. The kinase domain expressed is defined as amino acid residues D812-G1132 according to the numbering of GenBank sequence accession number NP_004963.1. Recombinant DNA transfer vectors were co-transfected with BakPAK6 linearized DNA (Clontech Laboratories, Inc., Mountain View, Calif.) and the resulting viral stocks were amplified using standard protocols. Protein was produced in SF9 cells grown to a cell density of 2E6/mL in ESF921 media (Expression Systems LLC, Woodland, Calif.) and infected at an M.O.I. of 1 in Wave bioreactors. The cells were harvested 72 hours post infection, and active JAK2 enzyme was purified from the lysates of infected cells by Ni-NTA (Qiagen, Valencia, Calif.) column chromatography followed by Sephacryl S-200 (GE Healthcare, Piscataway, N.J.) column chromatography.
The catalytically active kinase domain of human JAK1, JAK2, JAK3 or TYK2 was purified from extracts of SF9 insect cells infected with a recombinant baculovirus expression vector encoding the human JAK1, JAK2, JAK3 or TYK2 kinase domains (JAK1 amino acid residues N852-D1154 according to the numbering of GenBank sequence accession number P23458, JAK2 amino acid residues D812-G1132 according to the numbering of GenBank sequence accession number NP_004963.1; JAK3 amino acid residues S783-S1124 according to the numbering of GenBank sequence accession number P52333, and TYK2 amino acid residues N873-C1187 according to the numbering of GenBank sequence accession number P29597). The activity of the JAK1, JAK2, JAK3 or TYK2 kinase domains can be measured by a number of direct and indirect methods, including quantification of phosphorylation of peptide substrates derived from the human JAK3 protein (Saltzman et al., Biochem. Biophys. Res. Commun. 246:627-633 (2004)). The activity of the JAK1, JAK2, JAK3 or TYK2 kinase domains was measured in vitro by monitoring phosphorylation of JAK3 derived peptides using the Caliper LabChip technology.
The activity of the isolated JAK2 kinase domain was measured by monitoring phosphorylation of a peptide derived from JAK3 ([…] fluorescently labeled on the N-terminus with 5-carboxyfluorescein using the Caliper LabChip technology (Caliper Life Sciences, Hopkinton, Mass.). […] Reactions were incubated at 22° C. in 384-well polypropylene microtiter plates for 30 minutes and then stopped by addition of […] of an EDTA containing solution (100 mM Hepes pH 7.2, 0.015% Brij-35, 150 mM EDTA), resulting in a final EDTA concentration of 50 mM. After termination of the kinase reaction, the proportion of phosphorylated product was determined as a fraction of total peptide substrate using the Caliper LabChip 3000 according to the manufacturer's specifications. Ki values were then determined using the Morrison tight binding model.

TF-1 cells = test: IL-6-stimulated STAT3 phosphorylation in TF-1 cells (JAK1-dependent signaling, MSD); type: cell-based; settings: Homo sapiens, read-out: IL6-pSTAT3 TF1 EC50
Procedure: The activities of compounds were determined in cell-based assays that are designed to measure JAK1 or JAK2-dependent signaling. Compounds were serially diluted in DMSO and incubated with TF-1 cells (American Type Culture Collection (ATCC); Manassas, Va.) in 384-well microtiter plates in OptiMEM medium without phenol red, 1% Charcoal/Dextran stripped FBS, 0.1 mM NEAA, 1 mM sodium pyruvate (Invitrogen Corp.; Carlsbad, Calif.) at a final cell density of 100,000 cells per well and a final DMSO concentration of 0.2%. Human recombinant IL-6 (R&D systems; Minneapolis, Minn.) or EPO (Invitrogen Corp.; Carlsbad, Calif.) was then added at a final concentration of 30 ng/mL or 10 Units/mL, respectively, to the microtiter plates containing the TF-1 cells and compound and the plates were incubated for 30 min at 37° C. Compound-mediated effects on STAT3 or STATS phosphorylation were then measured in the lysates of cells incubated in the presence of IL-6 or EPO, respectively, using the Meso Scale Discovery (MSD) technology (Gaithersburg, Md.) according to the manufacturer's protocol and EC50 values were determined.

NK92 cells = test: IL-12-stimulated STAT4 phosphorylation in NK92 cells (TYK2-dependent signaling, MSD); type: cell-based; settings: read-out: IL12-pSTAT4 NK92 EC50
Procedure: The activities of compounds were determined in cell-based assays that are designed to measure TYK2-dependent signaling. Compounds were serially diluted in DMSO and incubated with NK92 cells (American Type Culture Collection (ATCC); Manassas, Va.) in 96-well microtiter plates in RPMI medium at a final cell density of 100,000 cells per well and a final DMSO concentration of 0.57%. Human recombinant IL-12 (R&D systems; Minneapolis, Minn.) was then added at a final concentration of 10 ng/mL to the microtiter plates containing the NK92 cells and compound and the plates were incubated for 1 hr at 37° C. Compound-mediated effects on STAT4 phosphorylation were then measured in the lysates of incubated cells using the Meso Scale Discovery (MSD) technology (Gaithersburg, Md.) according to the manufacturer's protocol and EC50 values were determined

[1] = 0.5 h, TF-1 cells, IL-6 30 ng/mL, 30 min
[2] = NK92 cells, IL-12 10 ng/mL, 1 hr

Chain of human JAK2 kinase domain (O60674 812-1132): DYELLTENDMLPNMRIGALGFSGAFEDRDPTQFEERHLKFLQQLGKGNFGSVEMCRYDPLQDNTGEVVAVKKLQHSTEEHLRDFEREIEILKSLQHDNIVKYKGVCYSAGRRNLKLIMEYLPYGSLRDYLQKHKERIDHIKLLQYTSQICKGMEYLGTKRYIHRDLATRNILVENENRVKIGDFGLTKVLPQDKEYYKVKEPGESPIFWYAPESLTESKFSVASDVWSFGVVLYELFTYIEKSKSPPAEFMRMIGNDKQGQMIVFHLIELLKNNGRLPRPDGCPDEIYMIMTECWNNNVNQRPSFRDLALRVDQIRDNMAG

Ki (human JAK2 kinase domain) | EC50 (TF-1 cells; [1]) | EC50 (NK92 cells; [2]) | SMILES | EC50 (TF-1 cells; TF-1, 0.5 h) | EC50 (NK92 cells; NK92, 1 h)
0.1 nM | 165 nM | 158 nM | Nc1ccn2ncc(C(=O)Nc3c[nH]nc3-c3cc(Cl)ccc3Cl)c2n1 [Example 248, 5-Amino-pyrazolo[1,5-a]-pyrimidine-3-carboxylic acid [3-(2,5-dichloro-phenyl)-1H-pyrazol-4-yl]-amide] | – | –
0.9 nM | 514 nM | 603 nM | Nc1ccn2ncc(C(=O)Nc3ccnn3-c3cc(Cl)ccc3Cl)c2n1 [Example 277, 5-Amino-pyrazolo[1,5-a]-pyrimidine-3-carboxylic acid [2-(2,5-dichloro-phenyl)-2H-pyrazol-3-yl]-amide] | – | –
4.2 nM | 380 nM | 5300 nM | Cc1cc(NC(=O)c2cnn3ccc(N)nc23)n(-c2ccccc2C)n1 [Example 343, 5-Amino-pyrazolo[1,5-a]-pyrimidine-3-carboxylic acid (5-methyl-2-o-tolyl-2H-pyrazol-3-yl)-amide] | – | –
0.5 nM | 170 nM | 336 nM | Cc1cc(NC(=O)c2cnn3ccc(N)nc23)n(-c2cc(Cl)ccc2C)n1 [Example 226] | – | –

More lines, now with the values behind:

SMILES | Ki (human JAK2 kinase domain) | EC50 (TF-1 cells; [1]) | EC50 (NK92 cells; [2]) | EC50 (TF-1 cells; TF-1, 0.5 h) | EC50 (NK92 cells; NK92, 1 h)
Cc1nc(-c2ccccc2C)c(NC(=O)c2cnn3ccc(N)nc23)s1 [Example 231, 5-amino-pyrazolo[1,5-a]pyrimidine-3-carboxylic acid (2-methyl-4-o-tolyl-thiazol-5-yl)-amide] | 1.8 nM | – | – | 371 nM | 3300 nM
O=C(NC1CCOCC1)c1cnn2ccc(NC3Cc4ccccc4C3)nc12 [Example 297, 5-(Indan-2-ylamino)-pyrazolo[1,5-a]pyrimidine-3-carboxylic acid (tetrahydro-pyran-4-yl)-amide] | 1.6 nM | 1400 nM | 1100 nM | – | –
O=C(N[C@H]1CC[C@H](O)CC1)c1cnn2ccc(NC3CCc4ccccc43)nc12 (stereo partly drawn) [Example 299, 5-(Indan-1-ylamino)-pyrazolo[1,5-a]pyrimidine-3-carboxylic acid (4-hydroxy-cyclohexyl)-amide] | 0.8 nM | 1880 nM | 1770 nM | – | –
Cc1cc(NC(=O)c2cnn3ccc(Nc4cccc(C(F)(F)F)c4)nc23)on1 [Example 240, 5-(3-Trifluoromethyl-phenylamino)-pyrazolo-[1,5-a]pyrimidine-3-carboxylic acid (3-methyl-isoxazol-5-yl)-amide] | 3.2 nM | 1600 nM | 579 nM | – | –

Source: patent US8637526B2, “Pyrazolopyrimidine JAK inhibitor compounds and methods” (Genentech, Inc., priority 2008, dated 2014)
